The results in this text go back to US6710090B2, “Inhibitory or blocking agents of molecular generating and/or inducing functions” (priority 1994, dated 2004).

The subject of one experiment is spermatozoa. Kind of experiment: Inhibitory effect on flagellum motility of spermatozoa. Type of experiment: cell-based, japanese bull. On the procedure:
In order to investigate an effect of Yoshixol on a flagellum motility of spermatozoa, the spermatozoa (seed japanese bull ID: Sinmorihide<registration No.Zen-Wa-Kuro1114, lot No.84Y28>) which has been conserved in the liquid nitrogen was thawing at 35° C. After thawing, 1 ml of semen was transferred to Petori-schale (grainer lab. GmHB) and, flagellum motility was observed by a phase contrast microscopy (IMT-2, Olympus Co.) and was recorded by a video film via a collar video camera (CCD-IRIS, Sony Co.) so that wave cycles and speed of the flagellum were analyzed by an original software of dynamic state analyzer. […] However, though a flagellum movement was completely stopped, the rotation of the head which occurs at the centriole (near junction between head and tail) was found during a few 10 seconds. And, a speed of this rotation gradually was decelerated with progress of a time. […] Moreover, from the knowledge that these movements of cells are involved in microfilaments and microtubles which is constricted from the proteins assembly, a morphological change of this spermatozoa due to treatment with Yoshixol was investigated by transmission type (JEM1200, EXII, JEOL, Ltd.) and scanning type (JSM-6000F, JEOL, Ltd.) electron microscopy. The outside of normal flagellum with regular basic structure of 9+2 is enclosed with a cell membrane and, there was the axial filament which structure is related to a movement is observed inside. The axial filament has […] (centrum pair) that exist mainly on the center and nine double tubles that exist in a periphery (circumscription canaliculus). […] But, though morphological aspect as a whole of spermatozoa was not altered by the treatment with Yoshixol, many particles with a size of 10-30 nm on the surface were observed likely to be blowed out, when the surface structure of flagellum was investigated by a magnification. And also, ring formation likely to a doughnut in which region is contributed to the movement was not found and, adhesion of small particles were noticeable (referred FIG. 28). […]

The subject of experiment [1] is synthesized dimers SEQ ID NO: 1 and SEQ ID NO: 2. Kind of experiment: Molecular weight of new synthesized dimers with seven base pair, electrophoresis. The experiment is classed as biochemical. Conditions: 2 μl dimer solution with 2 μl of Yoshixol, 20% gel electrophoresis. As to the method: DNA or RNA synthesis device (392-25 type, Perkin-Elmer Co.) was used and 7 base alignment (CTTCGGA) and (CTTCGGG) new synthesis dimer (SEQ ID NO: 1) (5′>CTTCGGACTTCGGA<3′) and (SEQ ID NO: 2) (5′>CTTCGGGCTTCGGG<3′) were synthesized. Then, an effect of Yoshixol on a change in molecular weight of the dimer was investigated. This pellet was dissolved on 50 μl of tris EDTA, and OD260 was measurement by 100 times attenuation so that concentration was turned into equality (5 ng/μl) by tris EDTA and distilled water. And, 4 μl of an adjusted synthesis dimer was labeled at 5′-terminal end of the dimer with 4 μl of ATP which was labeled by P32. In addition, after processing the dimer with 1 μl of polynucleokinase (TaKaRa, Tokyo) for 30 minutes by 37° C., the solution was heated at 70° C. for 5 minutes. Afterward, 65 μl of tris EDTA, 1 μl of glycogen and 190 μl of chilled ethanol were added and were mixed. And, it was centrifuged over 10 minute by 16,000 cpm. After taking the supernatant out, the pellet was made dry. Again, it was dissolved by 50 μl of tris EDTA and, 1 μl of the solution with radioactivity was mixed with urea (15 g), acrylamide (5.7 g), bisacrylamide (0.3 g), tris boric acid EDTA (3 ml), 10% ammoniumpersulfate (0.1 ml) and N, N, N, N-tetramethyldiamine (15 μl) to distilled water, so that the volume was made to 30 ml in total. […]

As for `C=C1CC(C)(C)C=CC1=O` [Yoshixol, 4,4-dimethyl-6-methylene-2-cyclohexen-1-one], the velocity of spermatozoa entry in the experiment with spermatozoa (1 μl of Yoshixol added to 1 ml semen, normal 0.3-1.5 mm per second) was “zero”. Further, the flagellum movement result with spermatozoa (after 1 μl of Yoshixol was added to 1 ml semen) was “immediately inhibited”. Moreover, in the experiment on spermatozoa (electron microscopy after treatment with Yoshixol), the “morphological aspect as a whole of spermatozoa” value is “not altered”. In addition, the “change in molecular weight of the synthesized dimers versus without treatment” value in experiment [1] is listed as “did not differ”.
